Experimental data taken from patent US4598077A, “Amidine derivatives and cardiotonic compositions” (Torii & Co. Ltd., priority 1983, dated 1986).
Where a name gives a salt, the structure may show the parent alone. Read-outs that look alike come from different tables or passages of the source.

What was measured:
Toxicity (LD50) = conditions: in vivo, iv; mouse; I.V.
[1] = test system: anesthetized open-chest dogs; assay: Cardiovascular effect in anesthetized open-chest dogs (Table 2); type: in vivo, Mongrel dogs; conditions: femoral vein; for change in vivo at 0.1 mg/kg / change in vivo at 0.3 mg/kg / change in vivo at 0.03 mg/kg: Canis lupus familiaris, iv
Description: Mongrel dogs of either sex weighing 9-15 kg were anesthetized with sodium pentobarbital (30 mg/kg, i.v.). The heart was exposed by thoractomy by the left fifth intercostal incision under artificial respiration. Aortic flow was measured by the probe of electromagnetic flowmeter placed around the ascending aorta. Myocardial contractility was measured by the maximal rate of rise of left ventricular pressure which was recorded from a needle inserted into the ventricular cavity. The systemic blood pressure was measured with a pressure transducer by means of a polyethylene cannular inserted into the femoral artery. The heart rate was recorded by a cardiotrachometer triggered by R wave of electrocargiogram (Lead II). Test compounds were dissolved in vehicle solution and were injected into the femoral vein. The effects of each compound on the cardiac contractility and aortic flow were evaluated as a percentage change in values determined before and after administration of the compound. In Table 2 are shown such changes in terms of the percentage increase after administration.

[2] = test system: papillary muscle preparation; assay: Isolated, blood-perfused papillary muscle preparation, developed tension (Table 1); parameters: species or system Mongrel dogs; conditions: Canis lupus familiaris, close-arterial injection, read-out: Papillary muscle preparation, % increase in developed tension; for activation at 0.03 mg: dose 30 μg; for activation at 0.1 mg: dose 100 μg; for activation at 0.3 mg: dose 300 μg
Description: Mongrel dogs of either sex weighting 7.5-10 kg were anesthetized with sodium pentobarbital (30 mg/kg, i.v.). Each animal was given an intravenous dose of sodium heparin (500 units/kg), thereafter, the heart was removed and placed in cold Tyrode solution. The isolated and cross-circulated right atrium and papillary muscle preparations were arranged for perfusion from a donor dog as follows. The donor dog was also anesthetized with sodium pentobarbital (30 mg/kg, i.v.); heparin (500 units/kg) was given intravenously immediately before the perfusion began. (a) The isolated, blood-perfused papillary muscle preparation. The anterior septal artery was dissected and cannulated with polyethylene tubing. The tendinous end of the papillary muscle was connected to a strain-gauge transducer by a fine silk thread and the muscles were under about 2 g of resting tension. The papillary muscle preparation was electrically driven at a constant frequency of 120/min with rectangular pulses of 1-3 V and 5 msec duration. The preparation of the blood-perfused papillary muscle has been described in detail by Endoh and Hashimoto Am. J. Physiol, 218, 1459-1463 (1970). Each preparation was perfused with the arterial blood from the carotid artery of the donor dog at a constant perfusion pressure of 100 mmHg by means of a peristaltic pump. The venous effluent from the preparations was collected in a reservoir and returned to the donor dog through the jugular vein. Test compounds used in these experiments were dissolved in vehicle solution and were injected closearterially to the preparations. The effects of each compound on the developed tension and sinuo rate were evaluated as a percentage change in values determined before and after administration of the compound. In Table 1 are shown such changes in terms of the percentage increase after administration.

right atrium preparation = assay: Isolated, blood-perfused right atrium preparation, sinus rate (Table 1); parameters: species or system Mongrel dogs; conditions: Canis lupus familiaris, close-arterial injection, read-out: Right atrium preparation; for activation at 0.03 mg: dose 30 μg; for activation at 0.03 mg / activation at 0.1 mg / activation at 0.3 mg: % increase in sinus rate
Description: Mongrel dogs of either sex weighting 7.5-10 kg were anesthetized with sodium pentobarbital (30 mg/kg, i.v.). Each animal was given an intravenous dose of sodium heparin (500 units/kg), thereafter, the heart was removed and placed in cold Tyrode solution. The isolated and cross-circulated right atrium and papillary muscle preparations were arranged for perfusion from a donor dog as follows. The donor dog was also anesthetized with sodium pentobarbital (30 mg/kg, i.v.); heparin (500 units/kg) was given intravenously immediately before the perfusion began. (b) The isolated, blood-perfused right atrium preparation. The sinus node artery was cannulated at its origin in the right coronary artery. A right atrial electrogram was obtained from bipolar electrodes which were placed in close proximity to the sinoatrial node. The sinus rate was recorded by a cardiotachometer triggered by the right atrial electrogram. The details of the bloodperfused right atrium preparation have been described by Chiba et al. (Tohoku J. exp. Med., 107, 101-102 (1972) and Kubota and Hashimoto (Naunyn-Schmiedeberg's Arch. Pharmacol., 278, 135-150 (1973)). Each preparation was perfused with the arterial blood from the carotid artery of the donor dog at a constant perfusion pressure of 100 mmHg by means of a peristaltic pump. The venous effluent from the preparations was collected in a reservoir and returned to the donor dog through the jugular vein. Test compounds used in these experiments were dissolved in vehicle solution and were injected closearterially to the preparations. The effects of each compound on the developed tension and sinuo rate were evaluated as a percentage change in values determined before and after administration of the compound. In Table 1 are shown such changes in terms of the percentage increase after administration.

[3] = read-out: Increase in aortic flow (%)
[4] = read-out: Increase in cardiac contractility (%)
[5] = 0.3 mg/kg, read-out: Increase in aortic flow (%)
[6] = 0.3 mg/kg, read-out: Increase in cardiac contractility (%)

Cl.Cl.N=C(NCCc1ccccc1)c1ccc(CCc2ccc(CN)cc2)cc1 [Compound 5, 4-[2-(4-Aminomethylphenyl)ethyl]-N-(2-phenylethyl)benzamidine dihydrochloride]
LD50 (Toxicity (LD50)): 57.7 mg/kg
change in vivo at 0.1 mg/kg [1, 3]: 5%
change in vivo at 0.1 mg/kg [1, 4]: 12.9%
change in vivo at 0.3 mg/kg [1, 5]: 19.2%
change in vivo at 0.3 mg/kg [1, 6]: 38.9%
activation at 0.03 mg [2]: 33.3%
activation at 0.1 mg [2]: 53.5%
activation at 0.03 mg (right atrium preparation): 16%
activation at 0.1 mg (right atrium preparation; dose 100 μg): 17.7%

CC(=O)O.CC(=O)O.N=C(N)c1ccc(OCc2ccc(CN)cc2)cc1 [Compound 8, 4-(4-aminomethylbenzyloxy)benzamidine diacetate]
LD50 (Toxicity (LD50)): 57.7 mg/kg
change in vivo at 0.1 mg/kg [1, 3]: 6.1%
change in vivo at 0.1 mg/kg [1, 4]: 0%
change in vivo at 0.3 mg/kg [1, 5]: 9.5%
change in vivo at 0.3 mg/kg [1, 6]: 16.7%
activation at 0.1 mg [2]: 20.7%
activation at 0.3 mg [2]: 44.8%
inhibition at 0.1 mg (right atrium preparation; dose 100 μg, % decrease in sinus rate (in parentheses)): 7.7%
activation at 0.1 mg (right atrium preparation; dose 100 μg): 2.2%
inhibition at 0.3 mg (right atrium preparation; dose 300 μg, % decrease in sinus rate (in parentheses)): 9.7%
activation at 0.3 mg (right atrium preparation; dose 300 μg): 7.5%

Cl.Cl.N=C(N)c1ccc(CCc2ccc(CN)cc2)cc1 [Compound 2, 4-[2-(4-Aminomethylphenyl)ethyl]benzamidine dihydrochloride]
LD50 (Toxicity (LD50)): 40 mg/kg
change in vivo at 0.03 mg/kg [1, 3]: 5%
change in vivo at 0.03 mg/kg [1, 4]: 7.1%
change in vivo at 0.1 mg/kg [1, 3]: 16.1%
change in vivo at 0.1 mg/kg [1, 4]: 25%
activation at 0.03 mg [2]: 63.8%
activation at 0.1 mg [2]: 104%
activation at 0.03 mg (right atrium preparation): 10.7%
activation at 0.1 mg (right atrium preparation; dose 100 μg): 21.8%

CNC(=N)c1ccc(OCc2ccc(CN)cc2)cc1 [Compound 10, 4-(4-Aminomethylbenzyloxy)-N-methylbenzamidine dihydrochloride]
change in vivo at 0.3 mg/kg [1, 5]: 2.5%
change in vivo at 0.3 mg/kg [1, 6]: 8.7%
activation at 0.1 mg [2]: 27.9%
activation at 0.3 mg [2]: 54.4%
activation at 0.1 mg (right atrium preparation; dose 100 μg): 11.6%
activation at 0.3 mg (right atrium preparation; dose 300 μg): 17.9%

NCc1ccc(CCc2ccc(C3=NCCN3)cc2)cc1 [Compound 15, 2-{4-[2-(4-Aminomethylphenyl)ethyl]phenyl}imidazoline dihydrochloride]
change in vivo at 0.1 mg/kg [1, 3]: 5.9%
change in vivo at 0.1 mg/kg [1, 4]: 25%
change in vivo at 0.3 mg/kg [1, 5]: 10%
change in vivo at 0.3 mg/kg [1, 6]: 56.5%
activation at 0.03 mg [2]: 49.2%
activation at 0.1 mg [2]: 100%
activation at 0.03 mg (right atrium preparation): 22.8%
activation at 0.1 mg (right atrium preparation; dose 100 μg): 34.7%

CNC(=N)c1ccc(C=Cc2ccc(CN)cc2)cc1 [Compound 7, 4-[2-(4-aminomethylphenyl)ethenyl]-N-methylbenzamidine dihydrochloride]
change in vivo at 0.1 mg/kg [1, 3]: 4.2%
change in vivo at 0.1 mg/kg [1, 4]: 3.1%
change in vivo at 0.3 mg/kg [1, 5]: 13.8%
change in vivo at 0.3 mg/kg [1, 6]: 16.7%
activation at 0.1 mg [2]: 44.7%
activation at 0.3 mg [2]: 66%
activation at 0.1 mg (right atrium preparation; dose 100 μg): 8.3%
activation at 0.3 mg (right atrium preparation; dose 300 μg): 28.2%

COc1cc(CN)ccc1CCc1ccc(C(=N)NCCc2ccccn2)cc1.Cl.Cl.Cl [Compound 19, 4-[2-(4-Aminomethyl-2-methoxyphenyl)ethyl]-N-[2-(2-pyridyl)ethyl]benzamidine trihydrochloride]
% decrease in aortic flow (in parentheses) ([1]; 0.3 mg/kg): -1.2%
% decrease in cardiac contractility (in parentheses) ([1]; 0.3 mg/kg): -7.1%
change in vivo at 0.1 mg/kg [1, 3]: 9.2%
change in vivo at 0.1 mg/kg [1, 4]: 20%
change in vivo at 0.3 mg/kg [1, 5]: 11.9%
change in vivo at 0.3 mg/kg [1, 6]: 129%
activation at 0.1 mg [2]: 72.4%
activation at 0.3 mg [2]: 108%
activation at 0.1 mg (right atrium preparation; dose 100 μg): 21.9%
activation at 0.3 mg (right atrium preparation; dose 300 μg): 35.8%
